Where “and” joins values, the source holds several entries; their conditions need not be identical. Identical values can stand only once. Like-named read-outs stand apart in the source and are kept apart here. Peptide text beside a SMILES is read from it.
Experiments:
67 glnA RNA = assay: In-line probing of 67 glnA RNA; assay type: binding, Synechococcus elongatus; conditions: for binding by the 67 glnA aptamer: concentrations as high as 10 mM
Source text: (§1) RNAs were 5′-^32P radiolabeled and subjected to in-line probing analyses, which have been described in detail previously (Soukup et al. Relationship between internucleotide linkage geometry and the stability of RNA. RNA 1999; 5:1308-1325; Regulski E E, Breaker R R. In-line probing analysis of riboswitches. Methods Mol Biol 2008; 419:53-67). Briefly, 5′ triphosphates were removed from the RNAs using alkaline phosphatase (Roche) according to the manufacturer's protocol. The dephosphorylated RNAs were 5′-^32P radiolabeled by incubation with [γ-^32P] ATP and T4 polynucleotide kinase (New England Biolabs), following the manufacturer's directions. Denaturing PAGE (6%) was subsequently employed to purify the RNAs as described above. The radiolabeled RNAs were then incubated at 23° C. in a solution containing 75 mM Tris-HCl (pH 8.3 at 23° C.), 20 mM MgCl2, 100 mM KCl, and various different potential ligands (see results section for full list) at concentrations ranging from 1 μM to 10 mM in most cases. When RNAs were subjected to in-line probing with 100 mM L-glutamate, the amino acid replaced the Tris-HCl as the buffering agent. HCl and NaOH were used to adjust this modified in-line probing solution to pH 8.3.
After incubating for approximately 40 hours, the products of in-line probing reactions were separated by denaturing 10% PAGE. The gels were then dried and imaged using a Storm 820 PhosphorImager (GE Healthcare). The relative intensities of the various degradation products were quantified using SAFA v1.1 software (Das et al. SAFA: Semi-automated footprinting analysis software for high-throughput quantification of nucleic acid footprinting experiments. RNA 2005; 11:344-354). The bands which modulated the most intensely were used to make KD estimates. In the cases where the concentrations of ligand used were insufficiently high to saturate RNA binding, the data was normalized to KD values that best explained the data assuming a standard one-to-one interaction.

83 DP RNA = assay: In-line probing of 83 DP RNA (Downstream-peptide motif); assay type: binding, Synechococcus sp. CC9902; conditions: for binding by the Downstream-peptide glutamine aptamer: stated in the discussion for both aptamer subtypes, concentration not given at place; for Kd: 1-to-1 interaction, read-out: apparent KD
Source text: as §1
(§2) After incubating for approximately 40 hours, the products of in-line probing reactions were separated by denaturing 10% PAGE. The gels were then dried and imaged using a Storm 820 PhosphorImager (GE Healthcare). The relative intensities of the various degradation products were quantified using SAFA v1.1 software (Das et al. SAFA: Semi-automated footprinting analysis software for high-throughput quantification of nucleic acid footprinting experiments. RNA 2005; 11:344-354). The bands which modulated the most intensely were used to make KD estimates.

pfl RNA [1] = assay: RNase protection assay (RNase T1 and V1) with pfl RNA; assay type: binding, Clostridium acetobutylicum ATCC 824; conditions: shorter incubation time than in-line probing
Procedure: Due to the instability of PRPP, it was also tested in an RNase protection assay with RNase T1 and V1. The use of an RNase permits a shorter incubation time than used for in-line probing.

pfl RNA [2] = assay: In-line probing experiments with a pfl RNA; assay type: binding, Clostridium acetobutylicum ATCC 824; conditions: 1 mM except where noted
Procedure: Some riboswitches were tested for metabolite binding using in-line probing experiments (Regulski et al. In-line probing analysis of riboswitches. Methods Mol Biol 2008, 419:53-67). RNAs tested were transcribed in vitro from a DNA template using RNA polymerase T7. In the experiments described below, no modulation in gel patterns was observed that would indicate metabolite binding.
Experiments were performed with the following RNA encoded by Clostridium acetobutylicum ATCC 824:
The following metabolites were tested at 1 mM except where noted: AICAR riboside, AICAR ribotide, SAICAR, GAR, pyruvate, guanine (100 μM), hypoxanthine (40 μM), IMP, formate, THF, dihydrofolate, 5-formyl-THF, 10-formyl-THF, methylene-THF, methenyl-THF, methyl-THF, SAICAR, glutamate, glutamine, glycine, serine, aspartate, dUMP, homocysteine, SAM, AICA, CAIR, CoA, acetyl-CoA, alanine, NAD, NADH, NADP, NADPH, dCMP, histidine, D-ribose 5′-phosphate, adenine, D-ribose, NADH, SAICAR, CAIR, glycine, PRPR, ppGpp, cAMP, HMP, ATP (600 μM), CTP (600 μM), GTP (600 μM), UTP (600 μM), AMP, ADP, GMP, GDP, UMP, UDP, uridine, and tryptophan.

SK209-52 RNA = assay: In-line probing of SK209-52 RNA (SAM/SAH motif); assay type: binding, Roseobacter sp. SK209-2-6; conditions: SAM samples may contain breakdown product SAH, read-out: apparent dissociation constant (KD)
Procedure: RNA constructs were prepared by in vitro RNA transcription RNA using T7 RNA polymerase and the appropriate DNA templates that were created by overlap extension of synthetic DNA oligonucleotides using SuperScript II reverse transcriptase (Invitrogen) as instructed by the manufacturer. RNA transcripts were purified using denaturing (8 M urea) polyacrylamide gel electrophoresis (PAGE). RNAs were eluted from the gel, dephosphorylated using alkaline phosphatase and 5′ radiolabeled with [γ-32P] using methods reported previously (Wang et al. Riboswitches that sense S-adenosylhomocysteine and activate genes involved in coenzyme recycling. Mol Cell 2008, 29:691-702). 5′ 32P-labeled fragments resulting from in-line probing reactions were subjected to denaturing PAGE, imaged and analyzed as previously described (Wang et al. Riboswitches that sense S-adenosylhomocysteine and activate genes involved in coenzyme recycling. Mol Cell 2008, 29:691-702).

[3] = tested on: SAM-Chlorobi RNA (four RNAs with different 3′ ends); assay: In-line probing experiments with SAM-Chlorobi RNA; assay type: binding, Chlorobium tepidum TLS; conditions: 1 mM
Procedure: Some riboswitches were tested for metabolite binding using in-line probing experiments (Regulski et al. In-line probing analysis of riboswitches. Methods Mol Biol 2008, 419:53-67). RNAs tested were transcribed in vitro from a DNA template using RNA polymerase T7. In the experiments described below, no modulation in gel patterns was observed that would indicate metabolite binding. […] Experiments were performed on the following four RNAs, encoded by Chlorobium tepidum TLS, which have different 3′ ends: Lowercase letters represent G nucleotides that were added to improve transcription yield. The following metabolites were tested at 1 mM: SAM, SAH, methionine, and homocysteine.

[4] = tested on: second representative of the glnA motif from a marine metagenomic sequence; assay: In-line probing of a second glnA motif representative; assay type: binding; conditions: for binding by the RNA: at 1 mM (data not shown)
Source text: as §1, §2

[5] = tested on: 67 glnA mutant RNA construct M1; assay: In-line probing of 67 glnA mutant M1 (disruptive mutations); assay type: binding, Synechococcus elongatus; conditions: two disruptive mutations in P2 stem
Procedure: (§3) Pairs of oligonucleotides were used in primer extension reactions to make full-length double-stranded DNA (dsDNA) products to use as templates for in vitro transcription reactions. Primers 1 and 2 were used for 67 glnA, 2 and 3 for Ml, 4 and 5 for M3, 1 and 6 for M2, 1 and 7 for M4, 8 and 9 for 83 DP, 8 and 10 for M5, and 8 and 11 for M6. A 100 μl solution containing 300 pmoles of each primer, 50 mM Tris-HCl (pH 8.3 at 23° C.), 75 mM KCl, 3 mM MgCl2, […] dithiothreitol (DTT), 1 mM of each of the four deoxynucleoside triphosphates (dNTPs), and 8 U/μl of SuperScript II Reverse Transcriptase (Invitrogen) was heated for 2 hours at 42° C. The full length dsDNA was then purified using the QIAquick PCR Purification Kit (QIAgen) following the manufacturer's protocol and was eluted in a volume of 50 […]
(§4) After incubating for approximately 40 hours, the products of in-line probing reactions were separated by denaturing 10% PAGE. […] The relative intensities of the various degradation products were quantified using SAFA v1.1 software (Das et al. SAFA: Semi-automated footprinting analysis software for high-throughput quantification of nucleic acid footprinting experiments. RNA 2005; 11:344-354). […]

[6] = tested on: 67 glnA mutant RNA construct M2; assay: In-line probing of 67 glnA mutant M2 (disruptive mutations); assay type: binding, Synechococcus elongatus; conditions: two disruptive mutations in P3 stem
Procedure: as §3, §4

construct M4 = assay: In-line probing of 67 glnA construct M4 (compensatory mutations); assay type: binding, Synechococcus elongatus
Procedure: as §3, §4

M5 RNA = assay: In-line probing of mutant 83 DP RNA M5 (disrupted pseudoknot); assay type: binding, Synechococcus sp. CC9902; conditions: two disruptive mutations in the pseudoknot
Procedure: as §3, §4

construct M3 = assay: In-line probing of 67 glnA construct M3 (compensatory mutations); assay type: binding, Synechococcus elongatus
Procedure: as §3, §4

## CC(=O)CC[C@H](N)C(=O)O [(S)-2-amino-5-oxo-hexanoic acid]
67 glnA RNA; in-line probing
  binding by the 67 glnA aptamer: rejected
83 DP RNA
  binding by the Downstream-peptide glutamine aptamer: reject

## CC(C)(C)OC(=O)[C@@H](N)CCC(N)=O [L-glutamine t-butyl ester]
67 glnA RNA; in-line probing
  binding by the 67 glnA aptamer: rejected
83 DP RNA
  binding by the Downstream-peptide glutamine aptamer: neither Ala-Gln nor L-glutamine t-butyl ester are bound

## O=P(O)(O)OC[C@H]1O[C@H](OP(=O)(O)OP(=O)(O)O)[C@H](O)[C@@H]1O [PRPP]
Pfl RNA [1]
  change in degradation patterns: no change in degradation patterns was detected
Pfl RNA [2]
  modulation in gel patterns that would indicate metabolite binding: did not reveal evidence of binding

## NC(=O)CCC[C@H](N)C(=O)O [L-homoglutamine]
67 glnA RNA; in-line probing
  binding by the 67 glnA aptamer: rejected
83 DP RNA
  binding by the Downstream-peptide glutamine aptamer: reject

## NC(=O)CC[C@@H](N)C(=O)O [D-glutamine]
67 glnA RNA; in-line probing
  affinity relative to its more common isomer (L-glutamine): approximately 1/10
  fold tighter binding of L-glutamine compared to D-glutamine: 10 fold
83 DP RNA; concentrations up to 10 mM
  binding to 83 DP RNA: no binding was detected

## C[S+](CC[C@H](N)C(=O)[O-])C[C@H]1O[C@@H](n2cnc3c(N)ncnc32)[C@H](O)[C@@H]1O (stereo partly shown) [SAM, S-adenosylmethionine]
SK209-52 RNA
  Kd: 8.6 µM and ~8.6 µM
[3]
  modulation in gel patterns that would indicate metabolite binding: did not reveal binding

## N=C(N)NCCCCN [agmatine]
[4]
  binding by the RNA: rejected

## NC(=O)CC[C@H](N)C(=O)O [L-glutamine]
[5]
  structural modulation upon addition of glutamine: no modulation
[6]
  structural modulation upon addition of glutamine: no modulation
Construct M4
  structural modulation in response to glutamine addition: regain structural modulation
M5 RNA
  binding to glutamine: does not bind
67 glnA RNA; 1 mM glutamine added to in-line probing assay containing 100 mM glutamate
  pattern of RNA cleavage products: produced the pattern of RNA cleavage products expected for glutamine binding
67 glnA RNA; curve expected for a 1-to-1 RNA-ligand interaction (FIG. 30C), read-out: KD
  Kd: 575 µM
67 glnA RNA; in-line probing, one-to-one interaction, read-out: apparent dissociation constant (KD)
  Kd: ~575 µM
83 DP RNA; listed as glutamine
  Kd: ~5 mM
83 DP RNA
  Kd: 5 mM
Construct M3
  structural modulation in response to glutamine addition: regain structural modulation
[4]
  Kd: ~150 µM

## N[C@@H](CCC(=O)O)C(=O)O [glutamate]
67 glnA RNA; in-line probing, 100 mM glutamate as the primary buffering agent
  structural modulation: no structural modulation was observed
83 DP RNA
  binding by the Downstream-peptide glutamine aptamer: reject
[4]
  binding by the RNA: rejected

## NCCCCN [putrescine]
[4]
  binding by the RNA: rejected

## Cc1ncc(COP(=O)(O)O)c(C=O)c1O [pyridoxal phosphate]
[4]
  binding by the RNA: rejected

## NCCCC[C@H](N)C(=O)O [L-lysine]
[4]
  binding by the RNA: rejected

## O=C(O)CCC(=O)O [succinate]
[4]
  binding by the RNA: rejected

## CCNC(=O)CC[C@H](N)C(=O)O [L-theanine]
67 glnA RNA; in-line probing
  binding by the 67 glnA aptamer: rejected

## CC(=O)OC[C@H](N)C(=O)O [O-acetyl-L-serine]
67 glnA RNA; in-line probing
  binding by the 67 glnA aptamer: rejected

## NCCCC(=O)O [γ-aminobutyric acid]
[4]
  binding by the RNA: rejected

## NC(=O)CC[C@H](N)CC(=O)O [L-β-homo glutamine]
67 glnA RNA; in-line probing
  binding by the 67 glnA aptamer: rejected

## C[C@H](N)C(=O)N[C@@H](CCC(N)=O)C(=O)O [Ala-Gln] (H-Ala-Gln-OH)
67 glnA RNA; in-line probing
  binding by the 67 glnA aptamer: rejected
83 DP RNA
  binding by the Downstream-peptide glutamine aptamer: neither Ala-Gln nor L-glutamine t-butyl ester are bound

## NC(=O)C[C@H](N)C(=O)O [L-asparagine]
67 glnA RNA; in-line probing
  binding by the 67 glnA aptamer: rejected

## O=C(O)CCC(=O)C(=O)O [2-oxoglutarate]
[4]
  binding by the RNA: rejected

## O=CCCC(=O)O [succinic semialdehyde]
[4]
  binding by the RNA: rejected

## O=C(O)CCCC(=O)O [glutaric acid]
[4]
  binding by the RNA: rejected

## NC(=O)CCCC(=O)O [5-amino-5-oxopentanoic acid]
67 glnA RNA; in-line probing
  binding by the 67 glnA aptamer: rejected
83 DP RNA
  binding by the Downstream-peptide glutamine aptamer: loss of binding

## Nc1ncnc2c1ncn2[C@@H]1O[C@H](CSCC[C@H](N)C(=O)O)[C@@H](O)[C@H]1O [SAH, S-adenosylhomocysteine]
SK209-52 RNA
  Kd: ~4.3 µM
[3]
  modulation in gel patterns that would indicate metabolite binding: did not reveal binding

Source: patent publication US20120321647A1, “STRUCTURED RNA MOTIFS AND COMPOUNDS AND METHODS FOR THEIR USE” (YALE UNIVERSITY, priority 2010, published 2012)
